Patent US12161676B2, “Methods of use of islet cells” (CEDARS-SINAI MEDICAL CENTER, priority 2018, dated 2024)

Tested on: endocrine progenitors
Assay: Differentiation of iPSC-derived endocrine progenitors towards immature beta cells, marker expression with tested reagent combinations
Assay type: cell-based, human
Conditions: addition of the reagent during differentiation of endocrine progenitors into beta cells
Procedure: FIG. 31. Expression of DAPI, C-Peptide, Glucagon and NKX6.1 when testing various compounds at day 23.
FIG. 32. Measurement of DAPI, C-Peptide, Glucagon and NKX6.1 expression across tested compound combinations.
To further differentiate endocrine progenitors into beta cells, various reagents were tested to determine which combinations are most efficient in generating immature beta cells. T3 was selected for its role in beta cell survival, function, and identity Alk5 inhibitor II was selected for its specificity in inhibition of TGF beta receptor 1. XXI was selected as Notch inhibitor to exit cell cycle and as a driving force between endocrine vs duct phenotypes. Noggin is selected for BMP inhibition due to evidence that inhibition of this pathway is important for endocrine differentiation. Addition of notch inhibitor XXI reduced NKX6.1 levels and increased glucagon levels. […] The aforementioned growth factors can be used in combination for immature beta cell production. Thereafter, there is a need for a maturation step to induce glucose sensitivity on immature induced-islet cells

Compound	NKX6.1 levels	glucagon levels	c-peptide levels
C[C@H](NC(=O)Cc1cc(F)cc(F)c1)C(=O)N[C@H]1N=C(c2ccccc2)c2ccccc2N(C)C1=O [XXI]	reduced	increased	–
noggin	–	–	slightly increases
